For one assay, the system named is Saccharomyces cerevisiae. Nature of the assay: Antifungal activity against Saccharomyces cerevisiae after 18 hr by broth microdilution technique. It is filed as functional. For orientation: Dilution methods test growth across graded concentrations, often in twofold steps.
The next assay has as its system Klebsiella pneumoniae. Put plainly: Antibacterial activity against Klebsiella pneumoniae after 18 hr by broth microdilution technique. In kind it is functional.
A further assay relates to Vero. Nature of the assay: Cytotoxicity against Chlorocebus aethiops (African green monkey) Vero cells after 72 hr by MTT assay. In kind it is cell-based. As to conditions: Chlorocebus sabaeus.
The test system of another assay is A549. Put plainly: Cytotoxicity against Homo sapiens (human) A549 cells after 72 hr by MTT assay. Particulars: A549, 72 h. It is filed as cell-based. A general note: Tetrazolium assays rely on reduction of a dye to a coloured formazan, in cell work by metabolically active cells.
The subject of assay [1] is Mycobacterium tuberculosis. Put plainly: Antimycobacterial activity against Mycobacterium tuberculosis H37Rv after 21 days by broth dilution method. In kind it is functional. Particulars: 504 h.
In another assay the test system is Bacillus subtilis. Put plainly: Antibacterial activity against Bacillus subtilis after 18 hr by broth microdilution technique. It is filed as functional.
The next assay has as its system Aspergillus niger. Nature of the assay: Antifungal activity against Aspergillus niger after 18 hr by broth microdilution technique. In kind it is functional.
Another assay concerns Escherichia coli. Put plainly: Antibacterial activity against Escherichia coli after 18 hr by broth microdilution technique. It is filed as functional.
The next assay relates to Candida tropicalis. Nature of the assay: Antifungal activity against Candida tropicalis after 18 hr by broth microdilution technique. In kind it is functional.
For the next assay, the system named is Pseudomonas aeruginosa. Put plainly: Antibacterial activity against Pseudomonas aeruginosa after 18 hr by broth microdilution technique. It is filed as functional.
The subject of a further assay is Enterococcus faecalis. Put plainly: Antibacterial activity against Enterococcus faecalis after 18 hr by broth microdilution technique. It is filed as functional.
The subject of another assay is Staphylococcus aureus. Put plainly: Antibacterial activity against Staphylococcus aureus after 18 hr by broth microdilution technique. In kind it is functional.

pIC50: −log10 of the molar value. Values after ≈ are worked out from the molar mass of the structure shown.

For the molecule `O=C(NNC(=O)c1ccc(F)c(C(F)(F)F)c1)c1ccc(-n2cccc2)cc1`, the minimal inhibitory concentration (MIC) against Saccharomyces cerevisiae was 16 µg/mL (≈ 40.9 µM); with Klebsiella pneumoniae, > 500 µg/mL; in [1], 8 µg/mL (≈ 20.4 µM); with Bacillus subtilis, 16 µg/mL (≈ 40.9 µM); in the assay with Aspergillus niger, 8 µg/mL (≈ 20.4 µM); against Escherichia coli, 8 µg/mL (≈ 20.4 µM). Moreover, the MIC was determined as 4 µg/mL (≈ 10.2 µM) in the assay with Candida tropicalis, 8 µg/mL (≈ 20.4 µM) with Pseudomonas aeruginosa, 31.2 µg/mL (≈ 79.9 µM) in the assay with Enterococcus faecalis and 62.5 µg/mL (≈ 160 µM) in the assay on Staphylococcus aureus. Moreover, the pIC50 in the assay with Vero was 3.71; with A549, 3.70.
As for `c1ccc(-c2nnc(-c3ccc(-n4cccc4)cc3)o2)cc1`, the MIC is 31.2 µg/mL (≈ 109 µM) against Saccharomyces cerevisiae; > 500 µg/mL in the assay with Klebsiella pneumoniae; 8 µg/mL (≈ 27.8 µM) in assay [1]; 8 µg/mL (≈ 27.8 µM) against Bacillus subtilis; 31.2 µg/mL (≈ 109 µM) with Aspergillus niger; 8 µg/mL (≈ 27.8 µM) against Escherichia coli. Also, the MIC was 31.2 µg/mL (≈ 109 µM) in the assay on Candida tropicalis, 8 µg/mL (≈ 27.8 µM) in the assay with Pseudomonas aeruginosa, 31.2 µg/mL (≈ 109 µM) with Enterococcus faecalis and 31.2 µg/mL (≈ 109 µM) against Staphylococcus aureus. The pIC50 with Vero is 3.60; with A549 it was 3.59.
With `Brc1ccccc1-c1nnc(-c2ccc(-n3cccc3)cc2)o1`, the minimal inhibitory concentration (MIC) in the assay on Saccharomyces cerevisiae is 31.2 µg/mL (≈ 85.3 µM); in the assay on Klebsiella pneumoniae it was > 500 µg/mL; in [1], 8 µg/mL (≈ 21.8 µM); against Bacillus subtilis, 8 µg/mL (≈ 21.8 µM); against Aspergillus niger, 16 µg/mL (≈ 43.7 µM); with Escherichia coli, 8 µg/mL (≈ 21.8 µM). For the same molecule, the minimum inhibitory concentration (MIC) against Candida tropicalis is 4 µg/mL (≈ 10.9 µM); with Pseudomonas aeruginosa it was 8 µg/mL (≈ 21.8 µM); against Enterococcus faecalis, 31.2 µg/mL (≈ 85.3 µM); in the assay on Staphylococcus aureus, 31.2 µg/mL (≈ 85.3 µM). Also, the values for the negative-log IC50 (pIC50) in the assay on Vero and in the assay with A549 were 3.59 and 3.60, respectively.
`Brc1ccc(-c2nnc(-c3ccc(-n4cccc4)cc3)o2)cc1`: the MIC is 31.2 µg/mL (≈ 85.3 µM) in the assay on Saccharomyces cerevisiae; > 500 µg/mL in the assay with Klebsiella pneumoniae; 2 µg/mL (≈ 5.46 µM) in assay [1]; 4 µg/mL (≈ 10.9 µM) in the assay on Bacillus subtilis; 8 µg/mL (≈ 21.8 µM) in the assay with Aspergillus niger; 4 µg/mL (≈ 10.9 µM) against Escherichia coli. Moreover, the minimum inhibitory concentration (MIC) was determined as 4 µg/mL (≈ 10.9 µM) with Candida tropicalis, 8 µg/mL (≈ 21.8 µM) with Pseudomonas aeruginosa, 16 µg/mL (≈ 43.7 µM) in the assay with Enterococcus faecalis and 31.2 µg/mL (≈ 85.3 µM) in the assay on Staphylococcus aureus. Besides, the pIC50 with Vero and in the assay with A549 was 3.58 each time.
As to `CC(=O)N1N=C(c2ccc(-n3c(C)ccc3C)cc2)OC1c1ccc(Br)cc1` (stereo not drawn), the minimum inhibitory concentration (MIC) with Saccharomyces cerevisiae came out at 31.2 µg/mL (≈ 71.3 µM); in the assay on Klebsiella pneumoniae it was 31.2 µg/mL (≈ 71.3 µM); in [1] it was 8 µg/mL (≈ 18.3 µM); in the assay with Bacillus subtilis, 8 µg/mL (≈ 18.3 µM); against Aspergillus niger, 16 µg/mL (≈ 36.5 µM); in the assay on Escherichia coli, 500 µg/mL (≈ 1140 µM). The MIC in the assay on Candida tropicalis amounted to 8 µg/mL (≈ 18.3 µM); in the assay with Pseudomonas aeruginosa, 500 µg/mL (≈ 1140 µM); in the assay with Enterococcus faecalis, 31.2 µg/mL (≈ 71.3 µM); in the assay with Staphylococcus aureus, 16 µg/mL (≈ 36.5 µM). Also, the pIC50 in the assay on Vero and with A549 was 3.71 throughout.
Take `CC(=O)N1N=C(c2ccc(-n3c(C)ccc3C)cc2)OC1c1c(Cl)cccc1Cl` (stereo not drawn): the minimum inhibitory concentration (MIC) stood at 16 µg/mL (≈ 37.4 µM) against Saccharomyces cerevisiae; 62.5 µg/mL (≈ 146 µM) in the assay with Klebsiella pneumoniae; 2 µg/mL (≈ 4.67 µM) in assay [1]; 4 µg/mL (≈ 9.34 µM) in the assay with Bacillus subtilis; 4 µg/mL (≈ 9.34 µM) in the assay on Aspergillus niger; 16 µg/mL (≈ 37.4 µM) against Escherichia coli. For the same molecule, the MIC in the assay on Candida tropicalis is 4 µg/mL (≈ 9.34 µM); against Pseudomonas aeruginosa, 8 µg/mL (≈ 18.7 µM); in the assay with Enterococcus faecalis it was 2 µg/mL (≈ 4.67 µM); against Staphylococcus aureus, 2 µg/mL (≈ 4.67 µM). In addition, the pIC50 was 3.66 in the assay on Vero and 3.65 in the assay on A549.
As to `CC(=O)N1N=C(c2ccc(-n3c(C)ccc3C)cc2)OC1c1cccc([N+](=O)[O-])c1` (stereo not drawn), the minimal inhibitory concentration (MIC) in the assay with Saccharomyces cerevisiae was 31.2 µg/mL (≈ 77.3 µM); in the assay on Klebsiella pneumoniae, 62.5 µg/mL (≈ 155 µM); in [1], 31.2 µg/mL (≈ 77.3 µM); in the assay with Bacillus subtilis, 16 µg/mL (≈ 39.6 µM); in the assay on Aspergillus niger, 8 µg/mL (≈ 19.8 µM); in the assay on Escherichia coli, 62.5 µg/mL (≈ 155 µM). In addition, the MIC against Candida tropicalis is 8 µg/mL (≈ 19.8 µM); against Pseudomonas aeruginosa, 62.5 µg/mL (≈ 155 µM); in the assay on Enterococcus faecalis it was 31.2 µg/mL (≈ 77.3 µM); in the assay on Staphylococcus aureus, 31.2 µg/mL (≈ 77.3 µM). Besides, the pIC50 was 3.72 with Vero and 3.71 with A549.
As to `CC(=O)N1N=C(c2ccc(-n3c(C)ccc3C)cc2)OC1c1ccccc1[N+](=O)[O-]` (stereo not drawn), the MIC in the assay on Saccharomyces cerevisiae is 31.2 µg/mL (≈ 77.3 µM); in the assay with Klebsiella pneumoniae it was 500 µg/mL (≈ 1240 µM); in assay [1] it was 31.2 µg/mL (≈ 77.3 µM); in the assay with Bacillus subtilis it was 16 µg/mL (≈ 39.6 µM); against Aspergillus niger it was 8 µg/mL (≈ 19.8 µM); with Escherichia coli it was 500 µg/mL (≈ 1240 µM). For the same molecule, the minimal inhibitory concentration (MIC) worked out at 8 µg/mL (≈ 19.8 µM) against Candida tropicalis, 500 µg/mL (≈ 1240 µM) in the assay with Pseudomonas aeruginosa, 31.2 µg/mL (≈ 77.3 µM) with Enterococcus faecalis and 31.2 µg/mL (≈ 77.3 µM) in the assay on Staphylococcus aureus. The values for the pIC50 with Vero and in the assay on A549 were 3.76 and 3.74, respectively.
In the case of `CC(=O)N1N=C(c2ccc(-n3c(C)ccc3C)cc2)OC1c1ccc(O)cc1` (stereo not drawn), the minimum inhibitory concentration (MIC) was found to be 31.2 µg/mL (≈ 83.2 µM) in the assay with Saccharomyces cerevisiae; 31.2 µg/mL (≈ 83.2 µM) in the assay with Klebsiella pneumoniae; 16 µg/mL (≈ 42.6 µM) in assay [1]; 16 µg/mL (≈ 42.6 µM) against Bacillus subtilis; 8 µg/mL (≈ 21.3 µM) against Aspergillus niger; 62.5 µg/mL (≈ 166 µM) against Escherichia coli. Besides, the minimal inhibitory concentration (MIC) in the assay with Candida tropicalis turned out to be 8 µg/mL (≈ 21.3 µM); against Pseudomonas aeruginosa it was 62.5 µg/mL (≈ 166 µM); against Enterococcus faecalis, 31.2 µg/mL (≈ 83.2 µM); with Staphylococcus aureus, 31.2 µg/mL (≈ 83.2 µM). Also, the values for the pIC50 in the assay with Vero and in the assay on A549 were 3.73 and 3.72, respectively.

Broadly, the MIC is the lowest concentration found to suppress growth. Lower therefore signals a more susceptible organism. As usually defined, the pIC50 is −log10 of the IC50, conventionally taken in molar units. Lower therefore signals a large IC50.

(Values after ChEMBL document CHEMBL3046206, “Synthesis of new 4-(2,5-dimethylpyrrol-1-yl)/4-pyrrol-1-yl benzoic acid hydrazide analogs and some derived oxadiazole, triazole and pyrrole ring systems: a novel class of potential antibacterial, antifungal and antitubercular agents” (Med Chem Res, 2013).)
